# Measured values from ChEMBL document CHEMBL3885861, “Open TG-GATES”.
# Species on record: Rattus norvegicus
# Experiment: Open TG-GATES - Regimen: Daily Repeat
# Type: toxicity, organism-based, Sprague-Dawley
# Design: regimen Daily Repeat, gender Male, age 6 weeks
# Settings: in vivo, po, route gavage; for APTT / Bas / Eos / Fbg / Hb / Ht / Lym / MCHC / MCV / Mono / Neu / PT / Plat / RBC / Ret / WBC: tissue Blood; for KIDNEY_L / KIDNEY_R / KIDNEY_TOTAL: tissue Kidney; for LIVER: tissue Liver; for ALP / ALT / AST / CRE / DBIL / GLC / IP / K / LDH / Na / PL / RALB / TBIL / TC / TG / TP / gamma-GTP: tissue Plasma
# [1] = 0 mg/kg, 72 h, dose level Control, time 3 day
# [2] = 0 mg/kg, […], dose level Control, time 7 day
# [3] = 0 mg/kg, […], dose level Control, time 14 day
# [4] = 0 mg/kg, […], dose level Control, time 28 day
# [5] = 100 mg/kg, 72 h, dose level Low, time 3 day
# [6] = 100 mg/kg, […], dose level Low, time 7 day
# [7] = 100 mg/kg, […], dose level Low, time 14 day
# [8] = 100 mg/kg, […], dose level Low, time 28 day
smiles,measurement,setting,value
C#C[C@]1(O)CC[C@H]2[C@@H]3CCC4=Cc5oncc5C[C@]4(C)[C@H]3CC[C@@]21C [DANAZOL],TERMINAL_BW,[1],236.4 g
same,APTT,[1],23.9 s
same,Bas,[1],0%
same,Eos,[1],0.8%
same,Fbg,[1],304.4 mg/dL
same,Hb,[1],13.4 g/dL
same,Ht,[1],40.8%
same,Lym,[1],77.4%
same,MCHC,[1],32.7%
same,MCV,[1],63.8 fL
same,Mono,[1],3%
same,Neu,[1],17.2%
same,PT,[1],15.5 s
same,Plat,[1],120.7 x10_4/uL
same,RBC,[1],639.8 x10_4/ul
same,Ret,[1],6.7%
same,WBC,[1],80.8 x10_2/uL
same,KIDNEY_L,[1],1 g
same,KIDNEY_R,[1],1 g
same,KIDNEY_TOTAL,[1],2 g
same,LIVER,[1],11.6 g
same,ALP,[1],1436.8 IU/L
same,ALT,[1],45.8 IU/L
same,AST,[1],72.4 IU/L
same,CRE,[1],0.2 mg/dL
same,DBIL,[1],0 mg/dL
same,GLC,[1],197.6 mg/dL
same,IP,[1],7.8 mg/dL
same,K,[1],4.2 meq/L
same,LDH,[1],190 IU/L
same,Na,[1],142.6 meq/L
same,PL,[1],140 mg/dL
same,RALB,[1],3.1 g/dL
same,TBIL,[1],0.008 mg/dL
same,TC,[1],72.2 mg/dL
same,TG,[1],95.6 mg/dL
same,TP,[1],5.5 g/dL
same,gamma-GTP,[1],1.6 IU/L
same,TERMINAL_BW,[2],266.9 g
same,TERMINAL_BW,[3],328.6 g
same,TERMINAL_BW,[4],402.2 g
same,APTT,[2],22.8 s
same,Bas,[2],0%
same,Eos,[2],1%
same,Fbg,[2],302.8 mg/dL
same,Hb,[2],13.8 g/dL
same,Ht,[2],40.8%
same,Lym,[2],76.8%
same,MCHC,[2],33.9%
same,MCV,[2],60.1 fL
same,Mono,[2],3%
same,Neu,[2],18.8%
same,PT,[2],15.2 s
same,Plat,[2],116.5 x10_4/uL
same,RBC,[2],678.8 x10_4/ul
same,Ret,[2],5.9%
same,WBC,[2],114.8 x10_2/uL
same,APTT,[3],24.6 s
same,Bas,[3],0%
same,Eos,[3],0.8%
same,Fbg,[3],325.6 mg/dL
same,Hb,[3],14.5 g/dL
same,Ht,[3],41.5%
same,Lym,[3],83%
same,MCHC,[3],34.9%
same,MCV,[3],60.6 fL
same,Mono,[3],2%
same,Neu,[3],13.4%
same,PT,[3],15.3 s
same,Plat,[3],124.1 x10_4/uL
same,RBC,[3],685.8 x10_4/ul
same,Ret,[3],3.8%
same,WBC,[3],122.1 x10_2/uL
same,APTT,[4],23.5 s
same,Bas,[4],0%
same,Eos,[4],1%
same,Fbg,[4],293 mg/dL
same,Hb,[4],14.6 g/dL
same,Ht,[4],42.9%
same,Lym,[4],82.8%
same,MCHC,[4],34.1%
same,MCV,[4],57.9 fL
same,Mono,[4],1.8%
same,Neu,[4],13.6%
same,PT,[4],15.9 s
same,Plat,[4],101.9 x10_4/uL
same,RBC,[4],740 x10_4/ul
same,Ret,[4],2.1%
same,WBC,[4],119.8 x10_2/uL
same,KIDNEY_L,[2],1.1 g
same,KIDNEY_R,[2],1.1 g
same,KIDNEY_TOTAL,[2],2.3 g
same,KIDNEY_L,[3],1.3 g
same,KIDNEY_R,[3],1.4 g
same,KIDNEY_TOTAL,[3],2.7 g
same,KIDNEY_L,[4],1.4 g
same,KIDNEY_R,[4],1.4 g
same,KIDNEY_TOTAL,[4],2.8 g
same,LIVER,[2],12 g
same,LIVER,[3],14.6 g
same,LIVER,[4],15.8 g
same,ALP,[2],1763.8 IU/L
same,ALT,[2],42 IU/L
same,AST,[2],69.6 IU/L
same,CRE,[2],0.2 mg/dL
same,DBIL,[2],0 mg/dL
same,GLC,[2],202.8 mg/dL
same,IP,[2],7.2 mg/dL
same,K,[2],4.4 meq/L
same,LDH,[2],184 IU/L
same,Na,[2],141.8 meq/L
same,PL,[2],157 mg/dL
same,RALB,[2],3 g/dL
same,TBIL,[2],0.004 mg/dL
same,TC,[2],80.4 mg/dL
same,TG,[2],106.8 mg/dL
same,TP,[2],5.5 g/dL
same,gamma-GTP,[2],1.6 IU/L
same,ALP,[3],1603.8 IU/L
same,ALT,[3],36.8 IU/L
same,AST,[3],65.6 IU/L
same,CRE,[3],0.2 mg/dL
same,DBIL,[3],0 mg/dL
same,GLC,[3],188.2 mg/dL
same,IP,[3],7.2 mg/dL
same,K,[3],4.2 meq/L
same,LDH,[3],186.6 IU/L
same,Na,[3],142.2 meq/L
same,PL,[3],158 mg/dL
same,RALB,[3],3.1 g/dL
same,TBIL,[3],0.004 mg/dL
same,TC,[3],74.4 mg/dL
same,TG,[3],139.8 mg/dL
same,TP,[3],5.8 g/dL
same,gamma-GTP,[3],3 IU/L
same,ALP,[4],1301.4 IU/L
same,ALT,[4],41.8 IU/L
same,AST,[4],63.8 IU/L
same,CRE,[4],0.2 mg/dL
same,DBIL,[4],0 mg/dL
same,GLC,[4],200.4 mg/dL
same,IP,[4],6.4 mg/dL
same,K,[4],4 meq/L
same,LDH,[4],141.6 IU/L
same,Na,[4],141.8 meq/L
same,PL,[4],144.2 mg/dL
same,RALB,[4],3 g/dL
same,TBIL,[4],0 mg/dL
same,TC,[4],71 mg/dL
same,TG,[4],118.2 mg/dL
same,TP,[4],5.9 g/dL
same,gamma-GTP,[4],3.4 IU/L
same,TERMINAL_BW,[5],235.6 g
same,APTT,[5],23.6 s
same,Bas,[5],0%
same,Eos,[5],1%
same,Fbg,[5],344.8 mg/dL
same,Hb,[5],13.5 g/dL
same,Ht,[5],41%
same,Lym,[5],77%
same,MCHC,[5],32.8%
same,MCV,[5],63 fL
same,Mono,[5],2.8%
same,Neu,[5],19%
same,PT,[5],16.3 s
same,Plat,[5],115.1 x10_4/uL
same,RBC,[5],651.2 x10_4/ul
same,Ret,[5],6.3%
same,WBC,[5],91.5 x10_2/uL
same,KIDNEY_L,[5],1 g
same,KIDNEY_R,[5],1 g
same,KIDNEY_TOTAL,[5],2.1 g
same,LIVER,[5],11.7 g
same,ALP,[5],1493.6 IU/L
same,ALT,[5],45.6 IU/L
same,AST,[5],72.4 IU/L
same,CRE,[5],0.2 mg/dL
same,DBIL,[5],0 mg/dL
same,GLC,[5],187.2 mg/dL
same,IP,[5],7 mg/dL
same,K,[5],4.3 meq/L
same,LDH,[5],168.2 IU/L
same,Na,[5],143 meq/L
same,PL,[5],131.2 mg/dL
same,RALB,[5],3.1 g/dL
same,TBIL,[5],0 mg/dL
same,TC,[5],55.2 mg/dL
same,TG,[5],161.4 mg/dL
same,TP,[5],5.7 g/dL
same,gamma-GTP,[5],1.8 IU/L
same,TERMINAL_BW,[6],261.4 g
same,TERMINAL_BW,[7],310 g
same,TERMINAL_BW,[8],405.6 g
same,APTT,[6],25 s
same,Bas,[6],0%
same,Eos,[6],0.4%
same,Fbg,[6],318 mg/dL
same,Hb,[6],13.7 g/dL
same,Ht,[6],40.4%
same,Lym,[6],84%
same,MCHC,[6],33.9%
same,MCV,[6],60.1 fL
same,Mono,[6],2%
same,Neu,[6],13%
same,PT,[6],15.7 s
same,Plat,[6],117.6 x10_4/uL
same,RBC,[6],672.6 x10_4/ul
same,Ret,[6],5.1%
same,WBC,[6],112.4 x10_2/uL
same,APTT,[7],26.6 s
same,Bas,[7],0%
same,Eos,[7],0.8%
same,Fbg,[7],354.4 mg/dL
same,Hb,[7],14.5 g/dL
same,Ht,[7],41.1%
same,Lym,[7],84.8%
same,MCHC,[7],35.2%
same,MCV,[7],60.3 fL
same,Mono,[7],1.8%
same,Neu,[7],12%
same,PT,[7],16.2 s
same,Plat,[7],134.9 x10_4/uL
same,RBC,[7],681.2 x10_4/ul
same,Ret,[7],3.3%
same,APTT,[8],26.9 s
same,Bas,[8],0%
same,Eos,[8],1%
same,Fbg,[8],326.6 mg/dL
same,Hb,[8],14.5 g/dL
same,Ht,[8],42.4%
same,Lym,[8],78.8%
same,MCHC,[8],34.2%
same,MCV,[8],56.1 fL
same,Mono,[8],1.6%
same,Neu,[8],17.6%
same,PT,[8],17.1 s
same,Plat,[8],109.1 x10_4/uL
same,RBC,[8],756.2 x10_4/ul
same,Ret,[8],2.4%
same,WBC,[8],85.7 x10_2/uL
same,KIDNEY_L,[6],1.1 g
same,KIDNEY_R,[6],1.1 g
same,KIDNEY_TOTAL,[6],2.2 g
same,KIDNEY_L,[7],1.3 g
same,KIDNEY_R,[7],1.3 g
same,KIDNEY_TOTAL,[7],2.6 g
same,KIDNEY_L,[8],1.5 g
same,KIDNEY_R,[8],1.5 g
same,KIDNEY_TOTAL,[8],2.9 g
same,LIVER,[6],12.7 g
same,LIVER,[7],14.9 g
same,LIVER,[8],18.3 g
same,ALP,[6],1505.8 IU/L
same,ALT,[6],39.6 IU/L
same,AST,[6],65 IU/L
same,CRE,[6],0.2 mg/dL
same,DBIL,[6],0 mg/dL
same,GLC,[6],181.8 mg/dL
same,IP,[6],6.2 mg/dL
same,K,[6],4.4 meq/L
same,LDH,[6],139.6 IU/L
same,Na,[6],143.2 meq/L
same,PL,[6],128.4 mg/dL
same,RALB,[6],3 g/dL
same,TBIL,[6],0.002 mg/dL
same,TC,[6],51.8 mg/dL
same,TG,[6],140.4 mg/dL
same,TP,[6],5.6 g/dL
same,gamma-GTP,[6],2.2 IU/L
same,ALP,[7],1681.6 IU/L
same,ALT,[7],38.4 IU/L
same,AST,[7],57.4 IU/L
same,CRE,[7],0.2 mg/dL
same,DBIL,[7],0 mg/dL
same,GLC,[7],182.8 mg/dL
same,IP,[7],6.8 mg/dL
same,K,[7],4.1 meq/L
same,LDH,[7],154 IU/L
same,Na,[7],143.6 meq/L
same,PL,[7],132.8 mg/dL
same,RALB,[7],3.1 g/dL
same,TBIL,[7],0 mg/dL
same,TC,[7],49 mg/dL
same,TG,[7],177.6 mg/dL
same,TP,[7],6 g/dL
same,gamma-GTP,[7],2.6 IU/L
same,ALP,[8],1348.8 IU/L
same,ALT,[8],39.8 IU/L
same,AST,[8],59.2 IU/L
same,CRE,[8],0.2 mg/dL
same,DBIL,[8],0 mg/dL
same,GLC,[8],191.4 mg/dL
same,IP,[8],6.1 mg/dL
same,K,[8],3.9 meq/L
same,LDH,[8],121.8 IU/L
same,Na,[8],142.8 meq/L
same,PL,[8],142.4 mg/dL
same,RALB,[8],3 g/dL
same,TBIL,[8],0 mg/dL
same,TC,[8],46.6 mg/dL
same,TG,[8],334.4 mg/dL
same,TP,[8],6.2 g/dL
same,gamma-GTP,[8],3.2 IU/L
